The values below come from ChEMBL document CHEMBL1201862, “PubChem BioAssay data set” (2004).

Among the test systems are A498; CCRF-CEM; HCT-116; HT-29; IGROV-1; KM12; M14; NCI-H226; OVCAR-4; SF-295; SF-539; SK-MEL-28; SK-MEL-2; SK-MEL-5; UACC-257; 786-0.
Common to all, as to assay: inhibition of tumour cell growth, NCI panel, 48 h

Structures are written as SMILES.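 Growth conditions: 96-well plates. Treatment: test compound, 48 hours, 5 concentrations. Analysis: linear interpolation between bracketing concentrations; unreached endpoints set to highest concentration. The concentration for 50% growth inhibition is given as GI50.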 Activity calls are given as the source filed them. Rule as the data show it: active = GI50 up to about 1.1 µM and inactive = higher.

Turning to `Nc1nc(SCCC/C=C/B(O)O)nc2c1ncn2C1OC(CO)C(O)C1O` (stereo unspecified), the GI50 with A498, in the experiment on CCRF-CEM, in the experiment on HCT-116, in the experiment on HT-29, with IGROV-1 and in the experiment on KM12 was > 243 µM (inactive) in each case. The GI50 in the experiment on M14, in the experiment on NCI-H226, with OVCAR-4, with SF-295, in the experiment with SF-539 and with SK-MEL-28 was > 243 µM (inactive) throughout. The GI50 with SK-MEL-2, in the experiment with SK-MEL-5 and with UACC-257 was > 243 µM (inactive) each time.

Turning to `CN(C)CC1(C)CC/C(=C\c2ccc(Cl)cc2)C1=O` (stereo unspecified), the GI50 in the experiment on 786-0 was 59.2 µM (inactive); in the experiment on A498, 49.1 µM (inactive); with CCRF-CEM, 25.8 µM (inactive); with HCT-116, 34.3 µM (inactive); in the experiment on HT-29 it was 44.2 µM (inactive); in the experiment on IGROV-1, 74 µM (inactive). In addition, the GI50 with KM12 was 31.8 µM (inactive); in the experiment on M14, 43.2 µM (inactive); in the experiment with NCI-H226, > 100 µM (inactive); with OVCAR-4, 35.2 µM (inactive); in the experiment on SF-295, 67.1 µM (inactive); in the experiment on SF-539 it was 46.5 µM (inactive). The GI50 is > 100 µM (inactive) with SK-MEL-28, > 100 µM (inactive) with SK-MEL-2, 39 µM (inactive) in the experiment on SK-MEL-5 and 44.7 µM (inactive) in the experiment with UACC-257.

For `O=C1OC(=O)C2C3C=CC(C12)C1C2C=CC2C31` (stereo unspecified), the GI50 in the experiment on 786-0, in the experiment on A498, with CCRF-CEM, in the experiment on HCT-116, in the experiment on HT-29 and in the experiment on IGROV-1 was > 100 µM (inactive) each time. In addition, the GI50 with KM12, in the experiment on NCI-H226, with OVCAR-4, in the experiment on SF-295, with SF-539 and with SK-MEL-28 was > 100 µM (inactive) throughout. The GI50 in the experiment with SK-MEL-2 and in the experiment with UACC-257 was > 100 µM (inactive) throughout.

With `CC(=O)NC1=C(NC(C)(C)C)C(=O)c2ccccc2C1=O`, the GI50 with 786-0 was 3.4 µM (inactive); with A498, 23.1 µM (inactive); in the experiment with CCRF-CEM, 2.35 µM (inactive); with HCT-116 it was 28.7 µM (inactive); in the experiment with HT-29, 23.2 µM (inactive); in the experiment with IGROV-1, 30.2 µM (inactive). Besides, the GI50 in the experiment on KM12 is 30.3 µM (inactive); in the experiment on M14 it was 17.1 µM (inactive); in the experiment with NCI-H226 it was 14.5 µM (inactive); in the experiment on OVCAR-4 it was 20.1 µM (inactive); in the experiment with SF-295 it was 42.7 µM (inactive); in the experiment with SF-539, 15.8 µM (inactive). The GI50 is 25.4 µM (inactive) in the experiment on SK-MEL-28, 20.6 µM (inactive) with SK-MEL-2, 18.2 µM (inactive) with SK-MEL-5 and 15.9 µM (inactive) with UACC-257.

On to `O=c1[nH]cnc2[nH]nnc12`, for which the GI50 with 786-0 is 3.27 µM (inactive); in the experiment with A498, 57 µM (inactive); with CCRF-CEM, 0.4 µM (active); in the experiment on HCT-116 it was 2.1 µM (inactive); in the experiment with HT-29 it was 7.96 µM (inactive); with IGROV-1, 16 µM (inactive). For the same molecule, the GI50 with KM12 is 32.7 µM (inactive); in the experiment with M14, 1.11 µM (active); with NCI-H226 it was 5.6 µM (inactive); with OVCAR-4 it was 4.93 µM (inactive); in the experiment with SF-295 it was 8.65 µM (inactive); in the experiment on SF-539, 3.85 µM (inactive). In addition, the GI50 with SK-MEL-28 was 4.46 µM (inactive); in the experiment on SK-MEL-2, 0.386 µM (active); in the experiment with SK-MEL-5, 41.5 µM (inactive); in the experiment with UACC-257 it was 4.39 µM (inactive).

For `COc1cc2ccc1-c1cc(ccc1O)CC1c3cc4c(cc3CCN1C)Oc1c(OC)cc3c(c1O4)C(C2)N(C)CC3` (stereo unspecified), the GI50 in the experiment on 786-0 is 1.69 µM (inactive); in the experiment on A498, 2.19 µM (inactive); with CCRF-CEM, 2.19 µM (inactive); in the experiment on HCT-116, 1.46 µM (inactive); with HT-29, 1.73 µM (inactive); with IGROV-1, 2.17 µM (inactive). Moreover, the GI50 in the experiment with KM12 was 1.73 µM (inactive); in the experiment on M14, 1.82 µM (inactive); in the experiment with NCI-H226, 2.22 µM (inactive); in the experiment on OVCAR-4, 1.96 µM (inactive); with SF-295, 1.81 µM (inactive); with SF-539, 1.79 µM (inactive). Besides, the GI50 in the experiment with SK-MEL-28 was 1.52 µM (inactive); in the experiment with SK-MEL-2, 1.79 µM (inactive); with SK-MEL-5, 2.08 µM (inactive); in the experiment on UACC-257, 1.72 µM (inactive).

Consider `O=S1(=O)OCCOS(=O)(=O)C1Cl`, for which the GI50 in the experiment on 786-0, in the experiment on A498, in the experiment on CCRF-CEM, in the experiment on HCT-116, in the experiment with HT-29 and with IGROV-1 was > 100 µM (inactive) throughout. The GI50 with KM12, with M14, with NCI-H226, in the experiment with OVCAR-4, in the experiment on SF-295 and with SF-539 was > 100 µM (inactive) throughout. The GI50 in the experiment on SK-MEL-28, with SK-MEL-2, in the experiment on SK-MEL-5 and in the experiment on UACC-257 was > 100 µM (inactive) throughout.

In the case of `CCCC/C(C)=N/NC(N)=S`, the GI50 in the experiment with 786-0, in the experiment on A498, with CCRF-CEM, with HCT-116, with HT-29 and with IGROV-1 was > 100 µM (inactive) throughout. Moreover, the GI50 in the experiment on KM12, in the experiment with M14, in the experiment on NCI-H226, in the experiment with SF-295, with SF-539 and in the experiment with SK-MEL-28 was > 100 µM (inactive) each time. The GI50 in the experiment with SK-MEL-2, in the experiment with SK-MEL-5 and in the experiment with UACC-257 was > 100 µM (inactive) each time.

For `COC(=O)/C(=N/NC(C)(C)C)C(C(=O)OC)C(=O)C(=O)Nc1nc2ccc([N+](=O)[O-])cc2s1` (stereo unspecified), the GI50 in the experiment with 786-0 is > 100 µM (inactive); with A498 it was 23.6 µM (inactive); in the experiment with CCRF-CEM, > 100 µM (inactive); in the experiment with HCT-116, > 100 µM (inactive); in the experiment with HT-29 it was > 100 µM (inactive); in the experiment on IGROV-1, > 100 µM (inactive). The GI50 with KM12, in the experiment on M14, in the experiment on NCI-H226, with OVCAR-4, with SF-295 and with SF-539 was > 100 µM (inactive) throughout. Further, the GI50 with SK-MEL-28, with SK-MEL-2, in the experiment on SK-MEL-5 and with UACC-257 was > 100 µM (inactive) throughout.

For the molecule `CCCN(CCCCC(NC(C)=O)C(=O)NCc1ccccc1)C(=O)NC` (stereo unspecified), the GI50 in the experiment on 786-0, in the experiment with A498, with CCRF-CEM, in the experiment with HCT-116, in the experiment on HT-29 and in the experiment on IGROV-1 was > 100 µM (inactive) in each case. Further, the GI50 with KM12, in the experiment on M14, with NCI-H226, in the experiment on OVCAR-4, in the experiment with SF-295 and in the experiment on SF-539 was > 100 µM (inactive) in each case. For the same molecule, the GI50 in the experiment with SK-MEL-28, in the experiment on SK-MEL-2, in the experiment on SK-MEL-5 and with UACC-257 was > 100 µM (inactive) throughout.

For `O=C(Nc1ccc(C(F)(F)F)cc1[N+](=O)[O-])C(=O)Nn1c(S)nc2ccccc2c1=O`, the GI50 in the experiment with A498, with CCRF-CEM, in the experiment with HCT-116, with HT-29, in the experiment with IGROV-1 and in the experiment with KM12 was > 100 µM (inactive) each time. Further, the GI50 in the experiment on NCI-H226, in the experiment on OVCAR-4, in the experiment on SF-295, with SF-539, with SK-MEL-28 and in the experiment on SK-MEL-2 was > 100 µM (inactive) in each case. Also, the GI50 with SK-MEL-5 and in the experiment with UACC-257 was > 100 µM (inactive) throughout.

On to `CC(=O)/C=C\C(=O)NNS(=O)(=O)c1ccc(C)cc1`, for which the GI50 with 786-0, in the experiment with A498, in the experiment on CCRF-CEM, in the experiment with HCT-116, in the experiment on HT-29 and in the experiment with IGROV-1 was > 100 µM (inactive) in each case. Besides, the GI50 in the experiment with KM12, in the experiment on M14, in the experiment on NCI-H226, in the experiment with OVCAR-4, in the experiment on SF-295 and in the experiment on SF-539 was > 100 µM (inactive) in each case. Besides, the GI50 in the experiment with SK-MEL-28, in the experiment with SK-MEL-2, in the experiment with SK-MEL-5 and in the experiment on UACC-257 was > 100 µM (inactive) in each case.
